Source: US7396837B2, “Antitumoral analogs of lamellarins” (Pharma Mar, S.A.U., priority 2002, dated 2008)

Legend:
Assay type in all cases: cell-based
SKOV-3 = assay: SRB colorimetric cell growth inhibition assay, SKOV-3; settings: Homo sapiens; for GI50: SK-OV-3, SKOV-3, GI=growth inhibition, read-out: GI50 SKOV-3; for CC50 / IC (TGI): SK-OV-3, SKOV-3; for CC50: LC=cell killing (cytotoxic effect), read-out: LC50 SKOV-3; for IC (TGI): TGI=total growth inhibition (cytostatic effect), read-out: TGI SKOV-3
Summary of the method: (§1)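 Growth and viability quantified by sulforhodamine B staining in 96-well microplates. Triplicate wells give mean ± SD; derived endpoints are GI, TGI (cytostatic) and LC (cytotoxic).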

DU-145 = assay: SRB colorimetric cell growth inhibition assay, DU-145; settings: Homo sapiens, DU-145, DU-145; for GI50: GI=growth inhibition, read-out: GI50 DU-145; for CC50: LC=cell killing (cytotoxic effect), read-out: LC50 DU-145; for IC (TGI): TGI=total growth inhibition (cytostatic effect), read-out: TGI DU-145
Summary of the method: (§2)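 Triplicate-well SRB colorimetry following continuous sample exposure of human tumour cells; reported parameters are GI, TGI for cytostatic effect, and LC for cytotoxic effect.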

[1] = SRB colorimetric cell growth inhibition assay, H-MEC-1; settings: human, H-MEC-1 cells, H-MEC-1; LC=cell killing (cytotoxic effect); read-out: LC50 H-MEC-1
Summary of the method: as §1

H-MEC-1 = assay: as above; settings: Homo sapiens, HMEC-1, H-MEC-1; for GI50: GI=growth inhibition; for IC (TGI): TGI=total growth inhibition (cytostatic effect), read-out: TGI H-MEC-1
Summary of the method: as §1

LoVo-Dox = assay: SRB colorimetric cell growth inhibition assay, LoVo-Dox (MDR); settings: Homo sapiens, LOVO-DOX; for GI50: GI=growth inhibition, read-out: GI50 LOVO-DOX; for CC50: cell killing (cytotoxic effect), read-out: LC50 LOVO-DOX; for IC (TGI): total growth inhibition (cytostatic effect), read-out: TGI LOVO-DOX
Summary of the method: as §2

IGROV-ET = assay: SRB colorimetric cell growth inhibition assay, IGROV-ET (ET-743 resistant); settings: Homo sapiens, IGROV-ET; for GI50: GI=growth inhibition, read-out: GI50 IGROV-ET; for CC50: LC=cell killing (cytotoxic effect), read-out: LC50 IGROV-ET; for IC (TGI): TGI=total growth inhibition (cytostatic effect), read-out: TGI IGROV-ET
Summary of the method: as §2

LoVo = assay: SRB colorimetric cell growth inhibition assay, LoVo; settings: Homo sapiens, LoVo; for GI50: GI=growth inhibition, read-out: GI50 LOVO; for CC50: cell killing (cytotoxic effect), read-out: LC50 LOVO; for IC (TGI): total growth inhibition (cytostatic effect), read-out: TGI LOVO
Summary of the method: as §2

A-549 = assay: SRB colorimetric cell growth inhibition assay, A-549; settings: Homo sapiens, A549, A-549; for GI50: GI=growth inhibition, read-out: GI50 A-549; for CC50: cell killing (cytotoxic effect), read-out: LC50 A-549; for IC (TGI): total growth inhibition (cytostatic effect), read-out: TGI A-549
Summary of the method: as §2

HT-29 = assay: SRB colorimetric cell growth inhibition assay, HT-29; settings: Homo sapiens, HT-29, HT-29; for GI50: GI=growth inhibition, read-out: GI50 HT-29; for CC50: cell killing (cytotoxic effect), read-out: LC50 HT-29; for IC (TGI): total growth inhibition (cytostatic effect), read-out: TGI HT-29
Summary of the method: as §2

SK-BR-3 = assay: SRB colorimetric cell growth inhibition assay, SK-BR-3; settings: Homo sapiens, SK-BR-3, SK-BR-3; for GI50: GI=growth inhibition, read-out: GI50 SK-BR-3; for CC50: LC=cell killing (cytotoxic effect), read-out: LC50 SK-BR-3; for IC (TGI): TGI=total growth inhibition (cytostatic effect), read-out: TGI SK-BR-3
Summary of the method: as §2

IGROV = assay: SRB colorimetric cell growth inhibition assay, IGROV; settings: Homo sapiens, IGROV; for GI50: GI=growth inhibition, read-out: GI50 IGROV; for CC50: LC=cell killing (cytotoxic effect), read-out: LC50 IGROV; for IC (TGI): TGI=total growth inhibition (cytostatic effect), read-out: TGI IGROV
Summary of the method: as §2

K-562 = assay: SRB colorimetric cell growth inhibition assay, K-562; settings: Homo sapiens, K562, K-562; for GI50: GI=growth inhibition, read-out: GI50 K-562; for CC50: cell killing (cytotoxic effect), read-out: LC50 K-562; for IC (TGI): total growth inhibition (cytostatic effect), read-out: TGI K-562
Summary of the method: as §2

LNCaP = assay: SRB colorimetric cell growth inhibition assay, LNCaP; settings: Homo sapiens, LNCaP, LN-caP; for GI50: GI=growth inhibition, read-out: GI50 LN-caP; for CC50: LC=cell killing (cytotoxic effect), read-out: LC50 LN-caP; for IC (TGI): TGI=total growth inhibition (cytostatic effect), read-out: TGI LN-caP
Summary of the method: as §2

PANC-1 = assay: SRB colorimetric cell growth inhibition assay, PANC-1; settings: Homo sapiens, PANC-1, PANC-1; for GI50: GI=growth inhibition, read-out: GI50 PANC-1; for CC50: cell killing (cytotoxic effect), read-out: LC50 PANC-1; for IC (TGI): total growth inhibition (cytostatic effect), read-out: TGI PANC-1
Summary of the method: as §2

SK-MEL-28 = assay: SRB colorimetric cell growth inhibition assay, SK-MEL-28; settings: Homo sapiens, SK-MEL-28, MEL-28; for GI50: GI=growth inhibition, read-out: GI50 MEL-28; for CC50: LC=cell killing (cytotoxic effect), read-out: LC50 MEL-28; for IC (TGI): TGI=total growth inhibition (cytostatic effect), read-out: TGI MEL-28
Summary of the method: as §2

COc1cc(-c2c3n(c4c(=O)oc5cc(OC(=O)c6cc(F)c(F)c(F)c6F)c(OC)cc5c24)CCc2c-3cc(OC)c(OC)c2OC(=O)c2cc(F)c(F)c(F)c2F)ccc1OC(=O)c1cc(F)c(F)c(F)c1F [Compound 99]
4.06 µM: GI50 (H-MEC-1)
5.48 µM: IC (TGI) (H-MEC-1)
0.972 µM: GI50 (K-562)
4.46 µM: GI50 (LNCaP)
7.42 µM: CC50 [1]
2.26 µM: CC50 (K-562)
9.44 µM: GI50 (SKOV-3) | CC50 (SKOV-3) | IC (TGI) (SKOV-3) | GI50 (DU-145) | CC50 (DU-145) | IC (TGI) (DU-145) | GI50 (LoVo-Dox) | CC50 (LoVo-Dox) | IC (TGI) (LoVo-Dox) | GI50 (IGROV-ET) | CC50 (IGROV-ET) | IC (TGI) (IGROV-ET) | GI50 (LoVo) | CC50 (LoVo) | IC (TGI) (LoVo) | GI50 (A-549) | CC50 (A-549) | IC (TGI) (A-549) | GI50 (HT-29) | CC50 (HT-29) | IC (TGI) (HT-29) | GI50 (SK-BR-3) | CC50 (SK-BR-3) | IC (TGI) (SK-BR-3) | CC50 (IGROV) | IC (TGI) (IGROV) | CC50 (LNCaP) | GI50 (PANC-1) | CC50 (PANC-1) | IC (TGI) (PANC-1) | GI50 (SK-MEL-28) | CC50 (SK-MEL-28) | IC (TGI) (SK-MEL-28)
1.48 µM: IC (TGI) (K-562)
8.19 µM: IC (TGI) (LNCaP)
3.07 µM: GI50 (IGROV)

COc1cc(-c2c3c4cc(OC)c(OC(C)C)cc4oc(=O)c3n3ccc4c(OC(C)C)c(OC)c(OC)c(COS(C)(=O)=O)c4c23)ccc1OC(C)C [Compound 101]
8.25 µM: GI50 (LNCaP)
3.53 µM: IC (TGI) (K-562)
2.19 µM: GI50 (K-562)
0.791 µM: GI50 (SKOV-3)
4.66 µM: GI50 (H-MEC-1)
5.71 µM: CC50 (SKOV-3)
5.73 µM: CC50 (K-562)
13.1 µM: GI50 (DU-145) | CC50 (DU-145) | IC (TGI) (DU-145) | GI50 (LoVo-Dox) | CC50 (LoVo-Dox) | IC (TGI) (LoVo-Dox) | GI50 (IGROV-ET) | CC50 (IGROV-ET) | IC (TGI) (IGROV-ET) | GI50 (LoVo) | CC50 (LoVo) | IC (TGI) (LoVo) | GI50 (A-549) | CC50 (A-549) | IC (TGI) (A-549) | GI50 (HT-29) | CC50 (HT-29) | IC (TGI) (HT-29) | GI50 (SK-BR-3) | CC50 (SK-BR-3) | IC (TGI) (SK-BR-3) | CC50 (IGROV) | IC (TGI) (IGROV) | CC50 (LNCaP) | IC (TGI) (LNCaP) | GI50 (PANC-1) | CC50 (PANC-1) | IC (TGI) (PANC-1) | GI50 (SK-MEL-28) | CC50 (SK-MEL-28) | IC (TGI) (SK-MEL-28)
6.99 µM: IC (TGI) (H-MEC-1)
10.5 µM: CC50 [1]
11.9 µM: GI50 (IGROV)
2.34 µM: IC (TGI) (SKOV-3)
